Results published in patent publication US20160046665A1, “Peptide Ligand with Antibody Selectivity and the Application Thereof” (National Central University, priority 2014, published 2016).
“Also recorded” adds a separate entry of the source.

Assays:
Format in all cases: binding
PSA = experiment: SPR sensitivity detection with micro concentration antigen, chip with Rabbit IgG; settings: Rabbit IgG absorbed on chip, Rabbit IgG flowed again for increasing signal, FIG. 7A
From the text: In the following experiments, antigen in micro concentration is employed for detecting the sensitivity of peptide ligand chips being able to recognize Rabbit IgG and Mouse IgG2a, and the experimental results are shown in FIG. 7A and FIG. 7B.
Firstly, Rabbit IgG and Mouse IgG2a are respectively absorbed to GGEGELW and GGRRGW. After flowing micro concentration antigen through, Rabbit IgG and Mouse IgG2a are flowed through the chip surface for increasing the detected signal. […] According to FIG. 7A and FIG. 7B, the signal of about 2 ng/mL PSA can be detected from Mouse IgG2a of GGRRGW chip surface, and the signal of about 1 ng/mL PSA can be detected from Rabbit IgG of GGEGELW chip surface. Therefore, it proves that the peptide ligand of this specification can efficiently improve the antigen sensitivity.

Rabbit IgG = experiment: SPR absorption of Rabbit IgG on different chip surfaces
From the text: (§1) In this and the following examples, we employ Surface Plasmon resonance (SPR) as detecting equipment. The method for modifying SPR chip surface is briefly illustrated as following.
(§2) OEG [(11-Mercaptoundecyl)tetra(ethyleneglycol)] and OEG-COOH [HS(CH2)11(EG)6OCH2COOH] are mixed at the ratio of 10:1. Through strong gold-sulfur bonding, OEG and OEG-COOH are employed for modifying SPR chip surface to form mixed SAM (self-assembly monolayer). The mixed SAM surface comprises carboxyl group with negative charge, and hydroxyl group with hydrophilicity. The carboxyl group with negative charge on the SPR chip surface can be activated by EDC/20% DMSO. By reacting the 1° amino group of EDA (ethylenediamine) with the carboxyl group on the SPR chip surface to form amide bonding, the SPR chip surface can be modified into positive charge. And, in the same condition, the peptide ligand according to this invention can be grafted onto the SPR chip surface to form a peptide ligand surface.)
(§3) 1. 5 mM peptide ligand, 200 mM EDC, and 20% DMSO are prepared into 0.1 M pH=6.0 MES buffer solution.
(§4) In this example, SPR is employed for measuring the absorption of target antibody, rabbit immunoglobulin (Rabbit IgG), and target antigen, prostate specific antigen (PSA), on different charge surfaces and different peptide ligand surfaces. The mentioned different chip surfaces are employed for absorbing Rabbit IgG, washed with phosphate buffer (PB) solution, and employed to absorb PSA directly. Then, PB buffer solution is used to wash out the PSA not recognized by Rabbit IgG for measuring the absorption of antibody and antigen. The experimental process is roughly shown as following.
(§5) 1. 10 μg/mL Rabbit IgG is prepared in 0.01 M pH=7.4 PB buffer solution.
3. […]
(§6) In the above experiments, Surface Plasmon Resonance (SPR) is employed for measuring the antigen recognition efficiency of antibody on different modified chip surfaces. The recognition efficiency of Rabbit IgG and PSA on different chip with different charge surface and different peptide ligand is detected. […]

Mouse IgG2a [1] = experiment: SPR absorption of Mouse IgG2a on different chip surfaces; settings: FIG. 2
From the text: as §1, §2, §3, §6

[2] = system: prostate specific antigen (PSA); experiment: SPR PSA absorption / antigen recognition on chip surfaces with Rabbit IgG; settings: FIG. 4A
From the text: as §4, §5
2. 5 μg/mL PSA is prepared in 0.01 M pH=7.4 PB buffer solution.
3. The negative charge, positive charge, and peptide ligand modified chips are put on SPR respectively.
4. The flow rate is set at 20 μL/min.
5. Rabbit IgG, PB, PSA, and PB are flowed through the channel in sequence. The absorption time is about 60 minutes, and the desorption time is about 50 minutes.
(§7) Different chips with Rabbit IgG and Mouse IgG2a are used for PSA absorption experiment, and the PSA absorption is transferred to protein absorption by the above-mentioned formula, as shown in FIG. 3A and FIG. 3B.
(§8) In order to compare antigen recognition efficiency, we define “antigen recognition efficiency” as following: […]

[3] = system: prostate specific antigen (PSA); experiment: SPR PSA absorption / antigen recognition on chip surfaces with Mouse IgG2a
From the text: as §4, §7, §8

Mouse IgG2a [4] = experiment: SPR analysis of antibody oriented immobilization (orientation factor), Mouse IgG2a; settings: ratio of PSA and 2nd antibody, FIG. 6B
Target sequence in this assay (P01863 98-330 limits assumed): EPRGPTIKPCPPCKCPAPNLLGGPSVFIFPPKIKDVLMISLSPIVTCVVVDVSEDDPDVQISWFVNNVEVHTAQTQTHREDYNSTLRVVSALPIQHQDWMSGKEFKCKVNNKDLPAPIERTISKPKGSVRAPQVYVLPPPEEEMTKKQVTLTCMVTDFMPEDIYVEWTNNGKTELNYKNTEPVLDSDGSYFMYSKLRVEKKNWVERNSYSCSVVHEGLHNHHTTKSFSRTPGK

Sequence of Rabbit IgG (P01870 101-323 limits assumed): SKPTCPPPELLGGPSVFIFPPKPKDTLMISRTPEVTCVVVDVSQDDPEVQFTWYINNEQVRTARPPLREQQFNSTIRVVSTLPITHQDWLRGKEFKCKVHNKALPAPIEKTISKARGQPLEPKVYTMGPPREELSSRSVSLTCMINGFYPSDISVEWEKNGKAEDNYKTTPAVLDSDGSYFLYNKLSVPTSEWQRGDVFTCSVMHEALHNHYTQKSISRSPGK

Substance	PSA concentration whose signal can be detected by SPR (PSA)	specificity to these antibodies (Rabbit IgG; Rabbit IgG versus Mouse IgG2a absorption, FIG. 1B compared with FIG. 2)	Rabbit IgG absorption on chip surface (in words) (Rabbit IgG; SPR, FIG. 1B)	Rabbit IgG absorption to the chip surface (Rabbit IgG; SPR, peptide ligand chip surface, FIG. 3A)	Mouse IgG2a absorption on chip surface (in words) (Mouse IgG2a [1])	antigen recognition efficiency of Rabbit IgG [2]	antigen recognition efficiency of Mouse IgG2a ([3]; PSA, FIG. 4B)	PSA absorption on chip surface with Mouse IgG2a (in words) ([3]; SPR, FIG. 3B)	oriented immobilization of Mouse IgG2a on chip surface ([3]; deduced from Mouse IgG2a and PSA absorption)	orientation factor, chip surface with Mouse IgG2a (Mouse IgG2a [4])
GGEGELW	about 1 ng/mL	–	–	–	–	–	–	–	–	–
RRGW	–	does not have specificity	not much difference; also recorded: great	about 0.2 mol/cm^2	great; also recorded: higher	not good	great	great	great	good
